These results are taken from patent US11701364B2, “Agonists of stimulator of interferon genes sting” (The Scripps Research Institute, priority 2018, dated 2023).

pEC50: −log10 of the molar value.

This assay addresses T1, STING (Stimulator of Interferon Genes) (Homo sapiens, UniProt Q86WV6, G230A/H232R/R293Q/R71H).
T1 construct: host or cells: THP-1-Lucia ISG cells (human monocytic line)
Kind of assay: ISG-LUC activation assay (ISRE-Luciferase assay in THP-1 Lucia ISG reporter cells). It counts as cell-based. As to conditions: THP-1 Lucia ISG cells, 24 hours, luciferase reporter; read-out: ISG-LUC activation assay (EC50). The text has this: This has been established using a primary assay involving a human THP-1 cell line carrying an IRF-inducible reporter with 5 copies of the IFN signaling response element. Counter screens, involving alternative reporter constructs, rodent cell-based assays, as well as cGAS and STING knock-out cell lines, are used to eliminate luciferase artifacts and ensure human-rodent cross species reactivity, as well as pathway selectivity. Biochemical assays, involving cGAS enzymatic activity and STING protein binding assays, are used to identify the specific target of identified hits.
THP-1 Lucia ISG cells were resuspended in low-serum growth media (2% FBS) at a density of 5×10^5 cells/ml and treated with test article or vehicle (DMSO). 50 μL of cells were seeded into each well of a 384-well white greiner plates and incubated for 24 hours. To evaluate expression of the luciferase reporter, 30 μl of Quanti-luc (Invivogen) detection reagent was added to each well and luminescence was read using an Envision plate reader (Perkin Elmer) set with an integration time of 0.1 seconds.

T1 sequence (Q86WV6 whole entry R71H/G230A/H232R/R293Q): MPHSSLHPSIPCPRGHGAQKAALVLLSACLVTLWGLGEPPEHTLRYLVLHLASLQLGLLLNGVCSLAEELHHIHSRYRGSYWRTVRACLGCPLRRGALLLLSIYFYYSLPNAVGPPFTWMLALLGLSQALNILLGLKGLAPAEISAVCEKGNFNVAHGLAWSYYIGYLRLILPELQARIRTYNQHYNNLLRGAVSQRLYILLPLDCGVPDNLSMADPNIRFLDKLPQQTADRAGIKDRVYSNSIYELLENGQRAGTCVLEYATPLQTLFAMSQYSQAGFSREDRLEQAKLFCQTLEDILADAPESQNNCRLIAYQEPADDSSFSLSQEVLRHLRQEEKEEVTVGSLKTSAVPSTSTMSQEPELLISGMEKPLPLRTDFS

`COC(=O)c1cc2c(cc1NC(=O)c1ccc(-n3ccnc3)nn1)CCCC2` [Compound 114]: the pEC50 was 5.36.

With `CCN(CC)CC(C)(C)NC(=O)c1cc(F)c(F)cc1NC(=O)c1ccc(-n2ccnc2)nn1` [Compound 163], the pEC50 was 4.78.

As for `COC(=O)c1cc(Cl)c(C)nc1NC(=O)c1ccc(-n2ccnc2)nn1` [Compound 47], the pEC50 was 6.55.

For `O=C(Nc1cc2ccccc2cc1C(=O)O)c1ccc(-n2ccnc2)nn1` [Compound 78], the negative-log EC50 (pEC50) is 5.35.

For the compound `COC(=O)C1=C(NC(=O)c2ccc(-n3ccnc3)nn2)CC(C)(C)C1` [Compound 77], the pEC50 was under 4.30.

Turning to `COC(=O)c1ncc(C(F)(F)F)cc1NC(=O)c1ccc(-n2ccnc2)nn1` [Compound 152], the pEC50 was about 5.90.

In the case of `COC(=O)c1cc(C(F)(F)F)ccc1NC(=O)c1ccc(-n2ccnc2)nn1` [Compound 26], the pEC50 is 6.94.

Consider `COC(=O)c1c(F)cccc1NC(=O)c1ccc(-n2ccnc2)nn1` [Compound 72], for which the pEC50 is 5.78.

For `NC(=O)c1cc(Cl)c(Cl)cc1NC(=O)c1ccc(-n2ccnc2)nn1` [Compound 138], the pEC50 is under 4.30.

As to `CCOC(=O)c1cc[nH]c1NC(=O)c1ccc(-n2ccnc2)nn1` [Compound 110], the pEC50 was 4.77.

For the compound `CCOC(=O)c1nc2ccccc2cc1NC(=O)c1ccc(-n2ccnc2)nn1` [Compound 153], the pEC50 was 7.37.

Consider `COC(=O)c1cc(F)c(C)cc1NC(=O)c1ccc(-n2ccnc2)nn1` [Compound 21], for which the pEC50 was 7.04.

With `O=c1oc(-c2ccc(-n3ccnc3)nn2)nc2c1COCC2` [Compound 168], the pEC50 was 4.95.

Turning to `O=c1oc(-c2ccc(-n3ccnc3)nn2)nc2cc(F)c(F)cc12` [Compound 29], the negative logarithm of the EC50 (pEC50) is 6.85.

For the compound `Cc1ccc(C(=O)O)c(NC(=O)c2ccc(-n3ccnc3)nn2)c1` [Compound 82], the negative logarithm of the EC50 (pEC50) was 5.19.

Take `COC(=O)C1=C(NC(=O)c2ccc(-n3ccnc3)nn2)CC(C)(C)CC1` [Compound 127]: the pEC50 is 5.14.

Turning to `Cc1cc2c(=O)oc(-c3ccc(-n4ccnc4)nn3)nc2cc1F` [Compound 33], the pEC50 is over 7.71.

`COC(=O)c1n[nH]cc1NC(=O)c1ccc(-n2ccnc2)nn1` [Compound 123]: the negative logarithm of the EC50 (pEC50) is 5.52.

Consider `O=C(Nc1cc(C2CC2)c(F)cc1C(=O)O)c1ccc(-n2ccnc2)nn1` [Compound 174], for which the pEC50 is 5.00.

For `COC(=O)c1ccccc1NC(=O)c1ccc(-n2cnc(C)c2)nn1` [Compound 93], the pEC50 was under 4.70.

Consider `O=C(Nc1cc2ccccc2nc1C(=O)O)c1ccc(-n2ccnc2)nn1` [Compound 154], for which the pEC50 was about 4.98.

For `COC(=O)c1cc(OC)ccc1NC(=O)c1ccc(-n2ccnc2)nn1` [Compound 14], the pEC50 was 6.54.

`O=C(Nc1ccc(C(F)(F)F)cc1C(=O)O)c1ccc(-n2ccnc2)nn1` [Compound 90]: the pEC50 was under 4.70.

Regarding `O=c1oc(-c2ccc(-n3ccnc3)nn2)nc2cc(Cl)c(Cl)cc12` [Compound 35], the negative logarithm of the EC50 (pEC50) is 7.21.

In the case of `COC(=O)c1c(F)c(F)c(F)c(F)c1NC(=O)c1ccc(-n2ccnc2)nn1` [Compound 176], the pEC50 is about 5.60.

Regarding `O=c1oc(-c2ccc(-n3ccnc3)nn2)nc2cc(Cl)c(F)cc12` [Compound 36], the negative logarithm of the EC50 (pEC50) was 7.39.

On to `COC(=O)c1cc(OC(F)(F)F)c(F)cc1NC(=O)c1ccc(-n2ccnc2)nn1` [Compound 44], for which the pEC50 is 6.24.

As for `COc1ccc2c(=O)oc(-c3ccc(-n4ccnc4)nn3)nc2c1` [Compound 38], the negative-log EC50 (pEC50) is 6.31.

As for `NC(=O)c1cc(F)c(F)cc1NC(=O)c1ccc(-n2ccnc2)nn1` [Compound 63], the pEC50 is 5.58.

Regarding `O=C(Nc1cc(F)c(OC(F)F)cc1C(=O)O)c1ccc(-n2ccnc2)nn1` [Compound 84], the negative-log EC50 (pEC50) was 5.07.

Consider `COC(=O)c1ccc(C2CC2)cc1NC(=O)c1ccc(-n2ccnc2)nn1` [Compound 31], for which the pEC50 was 6.69.

For `CCOC(=O)C1=C(NC(=O)c2ccc(-n3ccnc3)nn2)COCC1` [Compound 129], the pEC50 is 4.97.

In the case of `O=C(Nc1cc(Cl)c(F)cc1C(=O)O)c1ccc(-n2ccnc2)nn1` [Compound 53], the pEC50 was about 6.20.

For `COC(=O)c1ncc(F)cc1NC(=O)c1ccc(-n2ccnc2)nn1` [Compound 69], the pEC50 is 5.56.

`COC(=O)c1cc(C)c(C)cc1NC(=O)c1ccc(-n2ccnc2)nn1` [Compound 11]: the pEC50 is 6.99.

With `CCOC(=O)c1c(F)ccc(F)c1NC(=O)c1ccc(-n2ccnc2)nn1` [Compound 143], the negative-log EC50 (pEC50) is 5.01.

On to `COC(=O)c1cccc(C)c1NC(=O)c1ccc(-n2ccnc2)nn1` [Compound 91], for which the pEC50 was about 5.29.

On to `COC(=O)c1c(Cl)cc(F)cc1NC(=O)c1ccc(-n2ccnc2)nn1` [Compound 100], for which the negative-log EC50 (pEC50) is 4.99.

Regarding `COC(=O)c1cc(OC)c(F)cc1NC(=O)c1ccc(-n2ccnc2)nn1` [Compound 28], the negative-log EC50 (pEC50) is 7.02.

`CC(C)OC(=O)c1ccccc1NC(=O)c1ccc(-n2ccnc2)nn1` [Compound 95]: the pEC50 is 5.77.

For the compound `N=C(N)NCCC[C@H](NC(=O)c1cc(F)c(F)cc1NC(=O)c1ccc(-n2ccnc2)nn1)C(N)=O` [Compound 124], the negative logarithm of the EC50 (pEC50) was 5.09.

`Cc1cc(C(=O)O)c(NC(=O)c2ccc(-n3ccnc3)nn2)cc1C(F)(F)F` [Compound 102]: the negative-log EC50 (pEC50) is 4.92.

As for `O=C(Nc1cc(F)c(F)cc1C(=O)NO)c1ccc(-n2ccnc2)nn1` [Compound 150], the pEC50 was 4.91.

As for `Cc1cc(NC(=O)c2ccc(-n3ccnc3)nn2)c(C(=O)O)cc1F` [Compound 81], the pEC50 is 5.56.

In the case of `COC(=O)c1cc(F)cc(C)c1NC(=O)c1ccc(-n2ccnc2)nn1` [Compound 175], the pEC50 is about 5.55.

Consider `COC(=O)C1=C(NC(=O)c2ccc(-n3ccnc3)nn2)CC(C)(C)OC1` [Compound 136], for which the pEC50 is 5.05.

As for `COC(=O)c1cc(Cl)cc(C)c1NC(=O)c1ccc(-n2ccnc2)nn1` [Compound 97], the pEC50 is about 5.60.

As for `COC(=O)c1cc(Cl)c(Cl)cc1NC(=O)c1ccc(-n2ccnc2)nn1` [Compound 34], the negative logarithm of the EC50 (pEC50) was 7.14.

For the compound `COc1ccc(C(=O)O)c(NC(=O)c2ccc(-n3ccnc3)nn2)c1` [Compound 62], the negative logarithm of the EC50 (pEC50) was 5.84.

For `COC(=O)c1cc(F)c(OC)c(F)c1NC(=O)c1ccc(-n2ccnc2)nn1` [Compound 59], the pEC50 is 6.11.

`COC(=O)c1cc(C(C)C)ccc1NC(=O)c1ccc(-n2ccnc2)nn1` [Compound 160]: the negative-log EC50 (pEC50) was 5.42.

Regarding `O=C(Nc1cc(F)c(C(F)(F)F)cc1C(=O)O)c1ccc(-n2ccnc2)nn1` [Compound 80], the negative logarithm of the EC50 (pEC50) was 5.40.

For `COC(=O)c1cc(F)c(C)nc1NC(=O)c1ccc(-n2ccnc2)nn1` [Compound 149], the negative logarithm of the EC50 (pEC50) was 4.52.

As for `O=C(Nc1cc(Cl)c(Cl)cc1C(=O)O)c1ccc(-n2ccnc2)nn1` [Compound 103], the pEC50 was 6.35.

For the compound `COC(=O)c1ccc(F)c(C)c1NC(=O)c1ccc(-n2ccnc2)nn1` [Compound 2], the pEC50 is 5.33.

For the compound `Cc1ccc(C(=O)OC(C)C)c(NC(=O)c2ccc(-n3ccnc3)nn2)c1` [Compound 66], the negative-log EC50 (pEC50) is 6.29.

With `Cc1ccc2nc(-c3ccc(-n4ccnc4)nn3)oc(=O)c2n1` [Compound 137], the pEC50 was 5.03.
